According to patent US9771372B2, “Compounds useful as S100-inhibitors” (Active Biotech AB, priority 2014, dated 2017):

Molecular target: T1, interaction between biotinylated human S100A9 and human RAGE-Fc (Homo sapiens, UniProt P06702)
T1 construct: made in house; host or cells: E. coli BL21(DE3)/pET1120 (pLR757)
T1 sequence (P06702 1-114): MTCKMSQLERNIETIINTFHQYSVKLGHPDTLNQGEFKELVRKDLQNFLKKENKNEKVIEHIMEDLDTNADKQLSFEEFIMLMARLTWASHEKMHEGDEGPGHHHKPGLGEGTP
Experiment: AlphaScreen inhibition assay, Biot-hS100A9:hRAGE-Fc (S100A9-RAGE inhibition assay)
Type: binding
Settings: biot-hS100A9 and rhRAGE-Fc, Ca2+ and Zn2+ in buffer
Text: FIG. 1 is a schematic representation of an assay of the inhibition of the interaction between biotinylated human S100A9 and human RAGE-Fc using a small molecule S100A9 binder.
Inhibition Assay, Biot-hS100A9:hRAGE-Fc
The AlphaScreen (Amplified Luminescent Proximity Homogeneous Assay) contains two types of beads, Alpha Donor beads and Acceptor beads (PerkinElmer). Upon laser excitation at 680 nm a photosensitizer in the Donor bead converts ambient oxygen to a more excited singlet state. The singlet oxygen molecule diffuses (maximum 200 nm) to react with a thioxene derivative in the Acceptor bead and generates a chemiluminescence reaction. Fluorophores in the Acceptor bead subsequently emit light at 520-620 nm which can be detected in the EnVision® Multilabel plate Reader (PerkinElmer). The beads are light sensitive and all work with the beads is performed under subdued light conditions or using green filters on light sources (Roscolux Chroma Green #389, Rosco).
In the AlphaScreen Inhibition Assay described here, protein A (Staphylococcus aureus) conjugated Acceptor beads are used together with streptavidin coated Donor beads (Perkin Elmer 6760617M). The Acceptor beads are pre-incubated with Fc-tagged recombinant human RAGE (rhRAGE-Fc) allowing binding of the rhRAGE-Fc to protein A on the beads. Biotinylated human S100A9 (biot-hS100A9) is pre-incubated with the low molecular test compounds. The pre-mixes are then added to the wells of a micro-plate and incubated allowing interaction between biot-hS100A9 and rhRAGE-Fc. Subsequent addition of streptavidin coated Donor beads causes binding of the streptavidin to the biotinylated hS100A9. After an additional incubation the signal is measured.
Without inhibitory compounds, the interaction of biot-hS100A9 to rhRAGE-Fc will bring the Acceptor and Donor beads in close proximity thus generating a high signal. With an inhibitor present the complex will not form resulting in a decreased signal.
The AlphaScreen assay method is used for screening of the inhibitory effect of different compound samples at fixed concentrations or for IC50 determination by varying the compound concentrations. Samples of test compounds and references are prepared from solutions in DMSO. Relevant reference inhibitors and DMSO are used as controls for defined inhibition and non-inhibition, respectively in the assay. The percent inhibition in assay for test compounds and references are calculated by comparing their obtained assay signals with the signal values for the control with only DMSO (no compound).
Assay concentration of biotinylated hS100A9 and rhRAGE-Fc are batch dependent, and are determined and defined by separate cross-titration experiments using this AlphaScreen inhibition method to verify the optimal setup regarding signal strength and achievement of a defined inhibition with relevant reference compounds. The Final assay concentrations of Acceptor and Donor beads are 20 μg/mL.
Assay buffer is prepared by adding CaCl2 and ZnCl2 to HBS-P and is used freshly prepared in the experiment.
Biotin-hS100A9 solution for the experiment is prepared by dilution of appropriate amount of stock solution biot-hS100A9 in assay buffer (with CaCl2 and ZnCl2) and incubation in room temperature for 30 minutes.
rhRAGE-Fc solution for the experiment is prepared by dilution appropriate amount of rhRAGE-Fc stock in assay buffer.
Protein A Acceptor beads are diluted in assay buffer and are added to an equal volume of the prepared diluted rhRAGE-Fc solution. The beads are light sensitive. The vial is covered with aluminum foil and incubated at room temperature in the dark until biot-hS100A9+compound incubation is finished (see below).
Streptavidin-coated Donor beads are diluted in assay buffer. The beads are very light sensitive. The vial is covered with aluminum foil and incubated at room temperature in the dark until use (see below).
Samples of test compounds, appropriate references and DMSO control are diluted in assay buffer. […]

| SMILES | IC50 [µM] |
| --- | --- |
| O=C(NC1(C(F)(F)F)C(=O)Nc2nc3cc(Cl)c(Cl)cc3n21)C1CCN(C(=O)CC(F)(F)F)CC1 (stereo not drawn) [Example 46, N-[10,11-dichloro-4-oxo-3-(trifluoromethyl)-2,5,7-triazatricyclo[6.4.0.0^2,6]dodeca-1(12),6,8,10-tetraen-3-yl]-1-(3,3,3-trifluoropropanoyl)piperidine-4-carboxamide] | 3.8 |
| O=C(NC1(C(F)(F)F)C(=O)Nc2nc3cc(Cl)c(Cl)cc3n21)C1CNC1 (stereo not drawn) [Example 47, N-[10,11-dichloro-4-oxo-3-(trifluoromethyl)-2,5,7-triazatricyclo[6.4.0.0^2,6]dodeca-1(12),6,8,10-tetraen-3-yl]azetidine-3-carboxamide] | 3.9 |
| CC(=O)N1CC(C(=O)NC2(C(F)(F)F)C(=O)Nc3nc4cc(Cl)c(Cl)cc4n32)C1 (stereo not drawn) [Example 49, 1-acetyl-N-[10,11-dichloro-4-oxo-3-(trifluoromethyl)-2,5,7-triazatricyclo-[6.4.0.0^2,6]-dodeca-1(12),6,8,10-tetraen-3-yl]azetidine-3-carboxamide] | 3.9 |
| O=C(NC1(C(F)(F)F)C(=O)Nc2nc3cc(Cl)c(Cl)cc3n21)[C@@H]1CCN(S(=O)(=O)C2CCCC2)C1 (stereo partly drawn) [Example 51, (3R)-1-(cyclopentanesulfonyl)-N-[10,11-dichloro-4-oxo-3-(trifluoromethyl)-2,5,7-triaza-tricyclo[6.4.0.0^2,6]dodeca-1(12),6,8,10-tetraen-3-yl]pyrrolidine-3-carboxamide] | 1.2 |
| O=C(NC1(C(F)(F)F)C(=O)Nc2nc3cc(Cl)c(Cl)cc3n21)C1CN(c2ccccn2)C1 (stereo not drawn) [Example 52, N-[10,11-dichloro-4-oxo-3-(trifluoromethyl)-2,5,7-triazatricyclo[6.4.0.0^2,6]dodeca-1(12),6,8,10-tetraen-3-yl]-1-(pyridin-2-yl)azetidine-3-carboxamide] | 0.7 |
| O=C(CCC1CCCCC1)NC1(C(F)(F)F)C(=O)Nc2nc3cc(Cl)c(Cl)cc3n21 (stereo not drawn) [Example 53, 3-cyclohexyl-N-[10,11-dichloro-4-oxo-3-(trifluoromethyl)-2,5,7-triazatricyclo[6.4.0.0^2,6]-dodeca-1(12),6,8,10-tetraen-3-yl]propanamide] | 0.7 |
| O=C(NC1(C(F)(F)F)C(=O)Nc2nc3cc(Cl)c(Cl)cc3n21)C1CCCC1 (stereo not drawn) [Example 54, N-[10,11-dichloro-4-oxo-3-(trifluoromethyl)-2,5,7-triazatricyclo[6.4.0.0^2,6]dodeca-1(12),6,8,10-tetraen-3-yl]cyclopentanecarboxamide] | 1.6 |
| O=C(NC1(C(F)(F)F)C(=O)Nc2nc3cc(Cl)c(Cl)cc3n21)C1CCCCC1 (stereo not drawn) [Example 55, N-[10,11-dichloro-4-oxo-3-(trifluoromethyl)-2,5,7-triazatricyclo[6.4.0.0^2,6]dodeca-1(12),6,8,10-tetraen-3-yl]cyclohexanecarboxamide] | 1.7 |
| O=C(NC1(C(F)(F)F)C(=O)Nc2nc3cc(Cl)c(Cl)cc3n21)c1cccc(Cl)c1 (stereo not drawn) [Example 56, 3-chloro-N-[10,11-dichloro-4-oxo-3-(trifluoromethyl)-2,5,7-triazatricyclo[6.4.0.0^2,6]-dodeca-1(12),6,8,10-tetraen-3-yl]benzamide] | 1.4 |
| O=C(NC1(C(F)(F)F)C(=O)Nc2nc3cc(Cl)c(Cl)cc3n21)c1cc(Cl)cc(Cl)c1 (stereo not drawn) [Example 57, 3,5-dichloro-N-[10,11-dichloro-4-oxo-3-(trifluoromethyl)-2,5,7-triazatricyclo-[6.4.0.0^2,6]dodeca-1(12),6,8,10-tetraen-3-yl]benzamide] | 2.8 |
| O=C(CN1CCOCC1)NC1(C(F)(F)F)C(=O)Nc2nc3cc(Cl)c(Cl)cc3n21 (stereo not drawn) [Example 60, N-[10,11-dichloro-4-oxo-3-(trifluoromethyl)-2,5,7-triazatricyclo[6.4.0.0^2,6]dodeca-1(12),6,8,10-tetraen-3-yl]-2-(morpholin-4-yl)acetamide] | 4 |
| O=C(CCN1CCOCC1)NC1(C(F)(F)F)C(=O)Nc2nc3cc(Cl)c(Cl)cc3n21 (stereo not drawn) [Example 61, N-[10,11-dichloro-4-oxo-3-(trifluoromethyl)-2,5,7-triazatricyclo[6.4.0.0^2,6]dodeca-1(12),6,8,10-tetraen-3-yl]-3-(morpholin-4-yl)propanamide] | 2.9 |
| O=C(NC1(C(F)(F)F)C(=O)Nc2nc3cc(Cl)c(Cl)cc3n21)c1cccc(Cl)n1 (stereo not drawn) [Example 62, 6-chloro-N-[10,11-dichloro-4-oxo-3-(trifluoromethyl)-2,5,7-triazatricyclo[6.4.0.0^2,6]-dodeca-1(12),6,8,10-tetraen-3-yl]pyridine-2-carboxamide] | 1.1 |
| O=C(NC1(C(F)(F)F)C(=O)Nc2nc3cc(Cl)c(Cl)cc3n21)c1cccc(OCC(F)(F)F)n1 (stereo not drawn) [Example 64, N-[10,11-dichloro-4-oxo-3-(trifluoromethyl)-2,5,7-triazatricyclo[6.4.0.0^2,6]dodeca-1(12),6,8,10-tetraen-3-yl]-6-(2,2,2-trifluoroethoxy)pyridine-2-carboxamide] | 1.3 |
| CN(C)c1cccc(C(=O)NC2(C(F)(F)F)C(=O)Nc3nc4cc(Cl)c(Cl)cc4n32)n1 (stereo not drawn) [Example 65, N-[10,11-dichloro-4-oxo-3-(trifluoromethyl)-2,5,7-triazatricyclo[6.4.0.0^2,6]dodeca-1(12),6,8,10-tetraen-3-yl]-6-(dimethylamino)pyridine-2-carboxamide] | 2.2 |
| O=C(NC1(C(F)(F)F)C(=O)Nc2nc3cc(Cl)c(Cl)cc3n21)c1cccc(NC2CCCCC2)n1 (stereo not drawn) [Example 66, 6-(cyclohexylamino)-N-[10,11-dichloro-4-oxo-3-(trifluoromethyl)-2,5,7-triazatricyclo-[6.4.0.0^2,6]dodeca-1(12),6,8,10-tetraen-3-yl]pyridine-2-carboxamide] | 0.4 |
| CCNc1cccc(C(=O)NC2(C(F)(F)F)C(=O)Nc3nc4cc(C)c(C)cc4n32)n1 (stereo not drawn) [Example 67, N-[10,11-dimethyl-4-oxo-3-(trifluoromethyl)-2,5,7-triazatricyclo[6.4.0.0^2,6]dodeca-1(12),6,8,10-tetraen-3-yl]-6-(ethylamino)pyridine-2-carboxamide] | 2 |
| O=C(CCC1CCCCN1)NC1(C(F)(F)F)C(=O)Nc2nc3cc(Cl)c(Cl)cc3n21 (stereo not drawn) [Example 69, N-[10,11-dichloro-4-oxo-3-(trifluoromethyl)-2,5,7-triazatricyclo[6.4.0.0^2,6]dodeca-1(12),6,8,10-tetraen-3-yl]-3-(piperidin-2-yl)propanamide] | 4.9 |
| CCNc1cccc(C(=O)NC2(C(F)(F)F)C(=O)Nc3nc4cc(Cl)c(Cl)cc4n32)n1 (stereo not drawn) [Example 70, N-[10,11-dichloro-4-oxo-3-(trifluoromethyl)-2,5,7-triazatricyclo[6.4.0.0^2,6]dodeca-1(12),6,8,10-tetraen-3-yl]-6-(ethylamino)pyridine-2-carboxamide] | 1.3 |
| COCCNc1cccc(C(=O)NC2(C(F)(F)F)C(=O)Nc3nc4cc(Cl)c(Cl)cc4n32)n1 (stereo not drawn) [Example 71, N-[10,11-dichloro-4-oxo-3-(trifluoromethyl)-2,5,7-triazatricyclo[6.4.0.0^2,6]dodeca-1(12),6,8,10-tetraen-3-yl]-6-[(2-methoxyethyl)amino]pyridine-2-carboxamide] | 0.2 |
| O=C(CCC1CCCC1)NC1(C(F)(F)F)C(=O)Nc2nc3cc(F)c(F)cc3n21 (stereo not drawn) [Example 73, 3-cyclopentyl-N-[10,11-difluoro-4-oxo-3-(trifluoromethyl)-2,5,7-triazatricyclo-[6.4.0.0^2,6]dodeca-1(12),6,8,10-tetraen-3-yl]propanamide] | 2.8 |
